In patent US20050208496A1, “Methods of testing for bronchial asthma or chronic obstructive pulmonary disease” (Genox Research, Inc., priority 2002, published 2005):

Test system: respiratory epithelial cells

IL-13: human IL-13 (Peprotech, Inc.) added to the medium at 50 ng/mL to stimulate respiratory epithelial cells
AI948584 48086_at expression change (lot 1, Day 7, AI): −3.9 | AI971023 48539_at expression change (lot 1, Day 7, AI): −2.1 | AI984780 (52384_s_at) expression change (lot 1, Day 7, AI): −2.5 | AL040936 (45684_at) expression change (lot 1, Day 7, AI): −2.3 | AQP5 32909_at expression change (lot 1, Day 7, AI): −3.4 | ARHGEF4 36524_at expression change (lot 1, Day 7, AI): −4.1 | ARHV (82231_at) expression change (lot 1, Day 7, AI): −2.7 | AW022213 (79520_at) expression change (lot 1, Day 7, AI): −2.6 | AW025596 52634_at expression change (lot 1, Day 7, AI): −2.5 | AW025596 52637_g_at expression change (lot 1, Day 7, AI): −5.7 | B4GALT5 56373_at expression change (lot 1, Day 7, AI): −2.2 | BARX2 35425_at expression change (lot 1, Day 7, AI): −2.4 | BPGM (51261_at) expression change (lot 1, Day 7, AI): −3.7 | CBLB 514_at expression change (lot 1, Day 7, AI): −4.2 | CBLB 35632_at expression change (lot 1, Day 7, AI): −2 | COL12A1 (44730_at) expression change (lot 1, Day 7, AI): −3.5 | CRABP-II 1057_at expression change (lot 1, Day 7, AI): −5.4 | CRABP-II 41783_at expression change (lot 1, Day 7, AI): −8.8 | Clorf28 50075_at expression change (lot 1, Day 7, AI): −3.5 | DHCR24 (74557_s_at) expression change (lot 1, Day 7, AI): −2 | DKFZp434K1210 44682_at expression change (lot 1, Day 7, AI): −2.1 | DSC3 (79615_at) expression change (lot 1, Day 7, AI): −2.4 | DSC3a, b 47119_at expression change (lot 1, Day 7, AI): −2.8 | DSC3a, b 79615_at expression change (lot 1, Day 7, AI): −2.4 | EVPK 39569_at expression change (lot 1, Day 7, AI): −2 | FKBP5 (46271_at) expression change (lot 1, Day 7, AI): −2.3 | FLJ10298 (62490_f_at) expression change (lot 1, Day 7, AI): −4.5 | FLJ10718 52072_at expression change (lot 1, Day 7, AI): −3.8 | FLJ12541 43546_at expression change (lot 1, Day 7, AI): −10.1 | FLJ20048 (49196_at) expression change (lot 1, Day 7, AI): −4.3 | FLJ20500 43853_at expression change (lot 1, Day 7, AI): −2.1 | FLJ23309 45563_f_at expression change (lot 1, Day 7, AI): −2 | FLJ23516 47534_at expression change (lot 1, Day 7, AI): −4.1 | GABRP 40339_at expression change (lot 1, Day 7, AI): −2.1 | GAS41 (64121_at) expression change (lot 1, Day 7, AI): −2 | GJA1 32531_at expression change (lot 1, Day 7, AI): −8.8 | GK (61873_at) expression change (lot 1, Day 7, AI): −2.7 | GPD2 42720_at expression change (lot 1, Day 7, AI): −2 | GSTA3 58023 at expression change (lot 1, Day 7, AI): −2.7 | HEY1 44783_s_at expression change (lot 1, Day 7, AI): −4.5 | HIN-1 (46200_at) expression change (lot 1, Day 7, AI): −32.7 | HSPC195 44705_at expression change (lot 1, Day 7, AI): −2.4 | ID1 36619_r_at expression change (lot 1, Day 7, AI): −8 | IL20RA 42969_at expression change (lot 1, Day 7, AI): −2.1 | IVL 36355_at expression change (lot 1, Day 7, AI): −3.7 | KCNMA1 (47575_g_at) expression change (lot 1, Day 7, AI): −5.2 | KCNMA1 (53796_at) expression change (lot 1, Day 7, AI): −2.8 | KIAA0878 (48793_at) expression change (lot 1, Day 7, AI): −2.8 | KIAA1376 (62972_at) expression change (lot 1, Day 7, AI): −2.2 | KIAA1376 (64047_at) expression change (lot 1, Day 7, AI): −4 | KIAA1547 58531_g_at expression change (lot 1, Day 7, AI): −2.6 | KLF7 (42769_at) expression change (lot 1, Day 7, AI): −2.3 | KRT6B (62998_at) expression change (lot 1, Day 7, AI): −5.6 | KRT15 37582_at expression change (lot 1, Day 7, AI): −2.6 | LCE 45605_at expression change (lot 1, Day 7, AI): −2.6 | LMO4 1452_at expression change (lot 1, Day 7, AI): −2 | LOC51297 (55440_at) expression change (lot 1, Day 7, AI): −60.6 | LOC51297 (55442_g_at) expression change (lot 1, Day 7, AI): −181.3 | LOC51316 (63342_at) expression change (lot 1, Day 7, AI): −2.4 | LOC55893 (64071_at) expression change (lot 1, Day 7, AI): −3.5 | LOC129642 (42065_at) expression change (lot 1, Day 7, AI): −5.4 | LOC129642 (58288_at) expression change (lot 1, Day 7, AI): −7.2 | LOC131177 (43849_s_at) expression change (lot 1, Day 7, AI): −2.6 | LOC131177 (45394_s_at) expression change (lot 1, Day 7, AI): −2.3 | MGC12536 46924_at expression change (lot 1, Day 7, AI): −4.9 | MGC13102 (54791_at) expression change (lot 1, Day 7, AI): −3.9 | MGC14128 55924_at expression change (lot 1, Day 7, AI): −5.1 | MGC14128 (51669_r_at) expression change (lot 1, Day 7, AI): −4.4 | MGC14597 (46030_at) expression change (lot 1, Day 7, AI): −3.7 | MGC16207 43412_s_at expression change (lot 1, Day 7, AI): −2.6 | MGC16207 (65876_at) expression change (lot 1, Day 7, AI): −4 | N52554 47432_at expression change (lot 1, Day 7, AI): −2.7 | N71183 52473_at expression change (lot 1, Day 7, AI): −2.3 | PSCA (63958_at) expression change (lot 1, Day 7, AI): −6.5 | RAC2 32737_at expression change (lot 1, Day 7, AI): −4.9 | RIN1 1778_g_at expression change (lot 1, Day 7, AI): −2.1 | SCNN1B 39682_at expression change (lot 1, Day 7, AI): −7.6 | SEMA4B (46709_at) expression change (lot 1, Day 7, AI): −3.6 | SERPINA3 (75248_at) expression change (lot 1, Day 7, AI): −24.4 | SLC11A3 (45826_at) expression change (lot 1, Day 7, AI): −3.3 | SLC34A2 (48048_at) expression change (lot 1, Day 7, AI): −2 | SPON2 52576_s_at expression change (lot 1, Day 7, AI): −3 | SPRR1B 37160_at expression change (lot 1, Day 7, AI): −2.1 | STEAP 40297_at expression change (lot 1, Day 7, AI): −3.1 | T52027 (63150_at) expression change (lot 1, Day 7, AI): −2.9 | TCF8 33439_at expression change (lot 1, Day 7, AI): −2.1 | TGFBI (68339_at) expression change (lot 1, Day 7, AI): −4.2 | TNFAIP2 (74633_at) expression change (lot 1, Day 7, AI): −4.6 | TNNT1 36113_s_at expression change (lot 1, Day 7, AI): −5.5 | TPM1 36790_at expression change (lot 1, Day 7, AI): −3.3 | TPM1 36791_g_at expression change (lot 1, Day 7, AI): −3.2 | TPM1 36792_at expression change (lot 1, Day 7, AI): −3.9 | UCP2 37591_at expression change (lot 1, Day 7, AI): −12.7 | UGB 39220_at expression change (lot 1, Day 7, AI): −28.1 | VEGFC 1934_s_at expression change (lot 1, Day 7, AI): −2.4 | VIM 34091_s_at expression change (lot 1, Day 7, AI): −9.4 | W55956 46700_at expression change (lot 1, Day 7, AI): −2.3 | W72331 49486 at expression change (lot 1, Day 7, AI): −3.4 | AA167714 (54897_at) expression fold change (lot 1, Day 7, AI method): 3.9 fold | AA420479 (52539_at) expression fold change (lot 1, Day 7, AI method): 4.1 fold | AA582926 (52307_at) expression fold change (lot 1, Day 7, AI method): 3.8 fold | AA604375 (44127_at) expression fold change (lot 1, Day 7, AI method): 2.5 fold | ACP5 (677_s_at) expression, fold change upon IL-13 stimulation (lot 1, Day 7, AI method): 2.5 fold | ADAM8 (40712_at) expression, fold change upon IL-13 stimulation (lot 1, Day 7, AI method): 5.1 fold | ADAM28 (35479_at) expression, fold change upon IL-13 stimulation (lot 1, Day 7, AI method): 5 fold | AI565105 (54886_at) expression fold change (lot 1, Day 7, AI method): 2.4 fold | AI659927 (54033_at) expression fold change (lot 1, Day 7, AI method): 4.2 fold
